# Measurements published in patent publication US11358952B2, “Substituted 4-aminoisoindoline-1,3-dione compounds, compositions thereof, and methods of treatment therewith” (Celgene Corporation, priority 2018, dated 2022).
# Tested on: SU-DHL-4 cell line
# Test: SU-DHL-4 cell proliferation assay (Cell Titer-Glo viability)
# Assay type: cell-based
# Settings: Homo sapiens; cell viability IC50 activity level, DLBCL cell line SU-DHL-4, 120 hours post-treatment; read-out: SU-DHL-4 Act
# Protocol: SU-DHL-4 Cell Proliferation Assay.
# The following is an example of an assay that can be used to determine the anti-proliferative activity of Isoindolinedione Compounds in a DLBCL cell line, for example, the SU-DHL-4 cell line (Deutsche Sammlung von Mikroorganismen and Zellkulturen GmbH [DSMZ]: catalogue number ACC-495) at 120 hours post-treatment. The seeding density for SU-DHL-4 can be optimized to ensure assay linearity in 1536-well plates.
# Increasing concentrations of test compounds (0.5 nM to 10 μM) were spotted in a 20-point dilution fashion (unevenly spaced data points) via an acoustic dispenser (EDC ATS-100) into an empty 1536-well plate. The DMSO concentration was kept constant for a final assay concentration of 0.1% DMSO. Prior to testing, SU-DHL-4 cells were grown in RPMI-1640 (Roswell Park Memorial Institute—1640) medium with 10% FBS (fetal bovine serum: HyClone) and expanded in culture flasks to provide sufficient amounts of starting material. Cells were then diluted to 500 cells per well in a 5 μL volume, and added directly to the compound-spotted 1536-well plates. Cells were allowed to grow for 120 hours in 5% CO2 at 37° C. At the time when exposure of cells to compound began (to), initial viable cell number was assessed via Cell Titer-Glo® Luminescent Cell Viability Assay at a 1 vol:2 vol ratio according to manufacturer's instructions (Promega Corporation, Madison, Wis.) by quantifying the level of luminescence generated by adenosine-5′-triphosphate (ATP) present in viable cells. After 120 hours, cell viability of the treated cells was assessed via Cell Titer-Gb® and read for luminescence. All growth inhibition curves were processed and evaluated using Activity Base (IDBS, Alameda, Calif.). Cell viability IC50 values were calculated using a four parameter logistic model (sigmoidal dose-response model): y=(A+((B−A)/(1+((C/x)^D)))) wherein: A=YMin B=YMax C=EC50 D=Hill slope IC50=the concentration of the compound when Y=50% of DMSO control Y=cell viability measured as luminescence unit, and x=concentration of compound.
row,Compound,IC50 [nM]
1,"N#Cc1ccc(C2CN(Cc3ccc(CNc4cccc5c4C(=O)N(C4CCC(=O)NC4=O)C5=O)cc3F)C2)cc1 (centres unmarked) [Cpd 102, 4-(1-(4-((2-(2,6-dioxopiperidin-3-yl)-1,3-dioxoisoindolin-4-ylamino)methyl)-2-fluorobenzyl)azetidin-3-yl)benzonitrile]",< 200
2,"NC(=O)c1ccc(N2CCN(Cc3ccc(CNc4cccc5c4C(=O)N(C4CCC(=O)NC4=O)C5=O)cc3F)CC2)nc1 (centres unmarked) [Cpd 152, 6-(4-(4-((2-(2,6-dioxopiperidin-3-yl)-1,3-dioxoisoindolin-4-ylamino)methyl)-2-fluorobenzyl)piperazin-1-yl)nicotinamide]",501 to 750
3,"O=C1CCC(N2C(=O)c3cccc(NCc4ccc(CN5CCN(c6ccc(Cl)cc6Cl)CC5)cc4)c3C2=O)C(=O)N1 (centres unmarked) [Cpd 4, 4-(4-((4-(2,4-dichlorophenyl)piperazin-1-yl)methyl)benzylamino)-2-(2,6-dioxopiperidin-3-yl)isoindoline-1,3-dione]",501 to 750
4,"O=C1CCC(N2C(=O)c3cccc(NCc4ccc(CN5CCC6(COC6)C5)cc4F)c3C2=O)C(=O)N1 (centres unmarked) [Cpd 227, 4-(4-(2-oxa-6-azaspiro[3.4]octan-6-ylmethyl)-2-fluorobenylamino)-2-(2,6-dioxopiperidin-3-yl)isoindoline-1,3-dione]",< 200
5,"Cc1nnc(C2CCN(Cc3ccc(CNc4cccc5c4C(=O)N(C4CCC(=O)NC4=O)C5=O)c(F)c3)CC2)o1 (centres unmarked) [Cpd 178, 2-(2,6-dioxopiperidin-3-yl)-4-(2-fluoro-4-((4-(5-methyl-1,3,4-oxadiazol-2-yl)piperidin-1-yl)methyl)benzylamino)isoindoline-1,3-dione]",200 to 500
6,"CC(C)C1CN(Cc2ccc(CNc3cccc4c3C(=O)N(C3CCC(=O)NC3=O)C4=O)cc2)C1 (centres unmarked) [Cpd 113, 2-(2,6-dioxopiperidin-3-yl)-4-(4-((3-isopropylazetidin-1-yl)methyl)benzylamino)isoindoline-1,3-dione]",200 to 500
7,"Cc1cc(CNc2cccc3c2C(=O)N(C2CCC(=O)NC2=O)C3=O)ccc1CN1CCC(OC(C)C)CC1 (centres unmarked) [Cpd 78, 2-(2,6-dioxopiperidin-3-yl)-4-(4-((4-isopropoxypiperidin-1-yl)methyl)-3-methylbenzylamino)isoindoline-1,3-dione]",< 200
8,"NC(=O)c1cccc(N2CCN(Cc3ccc(CNc4cccc5c4C(=O)N(C4CCC(=O)NC4=O)C5=O)c(F)c3)CC2)n1 (centres unmarked) [Cpd 184, 6-(4-(4-((2-(2,6-dioxopiperidin-3-yl)-1,3-dioxoisoindolin-4-ylamino)methyl)-3-fluorobenzyl)piperazin-1-yl)picolinamide]",< 200
9,"Cc1cc(CNc2cccc3c2C(=O)N(C2CCC(=O)NC2=O)C3=O)ccc1CN1CC(N2[C@H](C)COC[C@@H]2C)C1 (stereo partly drawn) [Cpd 240, 4-(4-((3-((3S,5R)-3,5-dimethylmorpholino)azetidin-1-yl)methyl)-3-methylbenzylamino)-2-(2,6-dioxopiperidin-3-yl)isoindolinne-1,3-dione]",200 to 500
10,"Cc1cc(CNc2cccc3c2C(=O)N(C2CCC(=O)NC2=O)C3=O)ccc1CN1CCN(C2CC2)CC1 (centres unmarked) [Cpd 66, 4-(4-((4-cyclopropylpiperazin-1-yl)methyl)-3-methylbenzylamino)-2-(2,6-dioxopiperidin-3-yl)isoindoline-1,3-dione]",< 200
11,"O=C1CCC(N2C(=O)c3cccc(NCc4ccc(CN5CCCOCC5)cc4F)c3C2=O)C(=O)N1 (centres unmarked) [Cpd 242, 4-(4-((1,4-oxazepan-4-yl)methyl)-2-fluorobenzylamino)-2-(2,6-dioxopiperidin-3-yl)isoindoline-1,3-dione]",200 to 500
12,"Cc1cc(CNc2cccc3c2C(=O)N(C2CCC(=O)NC2=O)C3=O)ccc1CN1CCN(CC2CC2)CC1 (centres unmarked) [Cpd 65, 4-(4-((4-(cyclopropylmethyl)piperazin-1-yl)methyl)-3-methylbenzylamino)-2-(2,6-dioxopiperidin-3-yl)isoindoline-1,3-dione]",200 to 500
13,"N#Cc1cccc(C2CN(Cc3ccc(CNc4cccc5c4C(=O)N(C4CCC(=O)NC4=O)C5=O)cc3)C2)c1 (centres unmarked) [Cpd 15, 3-(1-(4-((2-(2,6-dioxopiperidin-3-yl)-1,3-dioxoisoindolin-4-ylamino)methyl)benzyl)azetidin-3-yl)benzonitrile]",751 to 1000
14,"Cc1cc(CNc2cccc3c2C(=O)N(C2CCC(=O)NC2=O)C3=O)ccc1CN1CCC(C2CCOCC2)CC1 (centres unmarked) [Cpd 214, 2-(2,6-dioxopiperidin-3-yl)-4-(3-methyl-4-((4-(tetrahydro-2H-pyran-4-yl)piperidin-1-yl)methyl)benzylamino)isoindoline-1,3-dione]",< 200
15,"O=C1CCC(N2C(=O)c3cccc(NCc4ccc(CN5CCN(c6ccc(F)cn6)CC5)cc4)c3C2=O)C(=O)N1 (centres unmarked) [Cpd 32, 2-(2,6-dioxopiperidin-3-yl)-4-(4-((4-(5-fluoropyridin-2-yl)piperazin-1-yl)methyl)benzylamino)isoindoline-1,3-dione]",200 to 500
16,"C[C@@H]1CN(c2ccc(Cl)cc2)CCN1Cc1ccc(CNc2cccc3c2C(=O)N(C2CCC(=O)NC2=O)C3=O)cc1 (stereo partly drawn) [Cpd 33, 4-(4-(((R)-4-(4-chlorophenyl)-2-methylpiperazin-1-yl)methyl)benzylamino)-2-(2,6-dioxopiperidin-3-yl)isoindoline-1,3-dione]",200 to 500
17,"NC(=O)c1ccc(N2CCN(Cc3ccc(CNc4cccc5c4C(=O)N(C4CCC(=O)NC4=O)C5=O)cc3F)CC2)cn1 (centres unmarked) [Cpd 98, 5-(4-(4-((2-(2,6-dioxopiperidin-3-yl)-1,3-dioxoisoindolin-4-ylamino)methyl)-2-fluorobenzyl)piperazin-1-yl)picolinamide]",< 200
18,"O=C1CCC(N2C(=O)c3cccc(NCc4ccc(CN5CCC(OC(F)(F)F)CC5)cc4)c3C2=O)C(=O)N1 (centres unmarked) [Cpd 123, 2-(2,6-dioxopiperidin-3-yl)-4-(4-((4-(trifluoromethoxy)piperidin-1-yl)methyl)benzylamino)isoindoline-1,3-dione]",200 to 500
19,"CC(C)(C)C1CN(Cc2ccc(CNc3cccc4c3C(=O)N(C3CCC(=O)NC3=O)C4=O)c(F)c2)C1 (centres unmarked) [Cpd 134, 4-(4-((3-tert-butylazetidin-1-yl)methyl)-2-fluorobenzylamino)-2-(2,6-dioxopiperidin-3-yl)isoindoline-1,3-dione]",< 200
20,"O=C1CCC(N2C(=O)c3cccc(NCc4ccc(CN5CCC(n6cccn6)CC5)c(F)c4)c3C2=O)C(=O)N1 (centres unmarked) [Cpd 106, 4-(4-((4-(1H-pyrazol-1-yl)piperidin-1-yl)methyl)-3-fluorobenzylamino)-2-(2,6-dioxopiperidin-3-yl)isoindoline-1,3-dione]",200 to 500
21,"N#Cc1ccc(C2CN(Cc3ccc(CNc4cccc5c4C(=O)N(C4CCC(=O)NC4=O)C5=O)cc3)C2)cc1 (centres unmarked) [Cpd 7, 4-(1-(4-((2-(2,6-dioxopiperidin-3-yl)-1,3-dioxoisoindolin-4-ylamino)methyl)benzyl)azetidin-3-yl)benzonitrile]",< 200
22,"Cc1cc(CNc2cccc3c2C(=O)N(C2CCC(=O)NC2=O)C3=O)ccc1CN1CCN(C(C)C)CC1 (centres unmarked) [Cpd 69, 2-(2,6-dioxopiperidin-3-yl)-4-(4-((4-isopropylpiperazin-1-yl)methyl)-3-methylbenzylamino)isoindoline-1,3-dione]",< 200
23,"CCS(=O)(=O)N1CCN(Cc2ccc(CNc3cccc4c3C(=O)N(C3CCC(=O)NC3=O)C4=O)cc2)CC1 (centres unmarked) [Cpd 133, 2-(2,6-dioxopiperidin-3-yl)-4-(4-((4-(ethylsulfonyl)piperazin-1-yl)methyl)benzylamino)isoindoline-1,3-dione]",200 to 500
